# From ChEMBL document CHEMBL1275514, “Surveillance of community-based reservoirs reveals the presence of CTX-M, imported AmpC, and OXA-30 beta-lactamases in urine isolates of Klebsiella pneumoniae and Escherichia coli in a U.S. community” (2008)
# What was measured:
# Assay type in all cases: functional
# [1] = tested on: Escherichia coli; assay: Antimicrobial activity against CMY-2 beta-lactamase producing Escherichia coli isolate CUMC181 by disk diffusion method in presence of beta-lactamase inhibitor clavulanic acid
# [2] = tested on: Escherichia coli; assay: Antimicrobial activity against CMY-2 beta-lactamase producing Escherichia coli isolate CUMC214 by disk diffusion method in presence of beta-lactamase inhibitor clavulanic acid
# [3] = tested on: Escherichia coli; assay: Antimicrobial activity against CTX-M-14-like, TEM-1-like beta-lactamase producing Escherichia coli isolate CUMC192 by disk diffusion method in presence of beta-lactamase inhibitor clavulanic acid
# [4] = tested on: Escherichia coli; assay: Antimicrobial activity against CTX-M-14-like, TEM-1-like beta-lactamase producing Escherichia coli isolate CUMC192 by disk diffusion method
# [5] = tested on: Escherichia coli; assay: Antimicrobial activity against CTX-M-14-like, TEM-1-like beta-lactamase producing Escherichia coli isolate CUMC203 by disk diffusion method
# [6] = tested on: Escherichia coli; assay: Antimicrobial activity against CMY-2,CTX-M-14,TEM-2-like beta-lactamase producing Escherichia coli isolate CUMC215 by disk diffusion method
# [7] = tested on: Escherichia coli; assay: Antimicrobial activity against CMY-2 beta-lactamase producing Escherichia coli isolate CUMC243 by disk diffusion method in presence of beta-lactamase inhibitor clavulanic acid
# [8] = tested on: Escherichia coli; assay: Antimicrobial activity against CTX-M-14-like, TEM-1-like beta-lactamase producing Escherichia coli isolate CUMC204 by disk diffusion method in presence of beta-lactamase inhibitor clavulanic acid
# [9] = tested on: Escherichia coli; assay: Antimicrobial activity against CTX-M-15,OXA-30 beta-lactamase producing Escherichia coli isolate CUMC245 by disk diffusion method in presence of beta-lactamase inhibitor clavulanic acid
# [10] = tested on: Escherichia coli; assay: Antimicrobial activity against CTX-M-14, TEM-1 beta-lactamase producing Escherichia coli isolate CUMC174 by disk diffusion method in presence of beta-lactamase inhibitor clavulanic acid
# [11] = tested on: Escherichia coli; assay: Antimicrobial activity against CTX-M-14, TEM-1-like beta-lactamase producing Escherichia coli isolate CUMC244 by disk diffusion method in presence of beta-lactamase inhibitor clavulanic acid
# [12] = tested on: Klebsiella pneumoniae; assay: Antimicrobial activity against CMY-2,CTX-M-14,TEM-2-like beta-lactamase producing Klebsiella pneumoniae isolate CUMCK2 by disk diffusion method
# [13] = tested on: Escherichia coli; assay: Antimicrobial activity against CMY-2 beta-lactamase producing Escherichia coli isolate CUMC225 by disk diffusion method
# [14] = tested on: Escherichia coli; assay: Antimicrobial activity against CTX-M-14, TEM-1 beta-lactamase producing Escherichia coli isolate CUMC174 by disk diffusion method
# [15] = tested on: Escherichia coli; assay: Antimicrobial activity against CTX-M-14, TEM-1-like beta-lactamase producing Escherichia coli isolate CUMC180 by disk diffusion method in presence of beta-lactamase inhibitor clavulanic acid
# [16] = tested on: Escherichia coli; assay: Antimicrobial activity against CTX-M-15,OXA-30 beta-lactamase producing Escherichia coli isolate CUMC245 by disk diffusion method
# [17] = tested on: Escherichia coli; assay: Antimicrobial activity against CMY-2,TEM-2-like beta-lactamase producing Escherichia coli isolate CUMC224 by disk diffusion method
# [18] = tested on: Escherichia coli; assay: Antimicrobial activity against CTX-M-14, TEM-1-like beta-lactamase producing Escherichia coli isolate CUMC176 by disk diffusion method in presence of beta-lactamase inhibitor clavulanic acid
# [19] = tested on: Escherichia coli; assay: Antimicrobial activity against CTX-M-14, TEM-1-like beta-lactamase producing Escherichia coli isolate CUMC244 by disk diffusion method
# [20] = tested on: Escherichia coli; assay: Antimicrobial activity against CMY-2 beta-lactamase producing Escherichia coli isolate CUMC190 by disk diffusion method
# [21] = tested on: Klebsiella pneumoniae; assay: Antimicrobial activity against CMY-2,CTX-M-14,TEM-2-like beta-lactamase producing Klebsiella pneumoniae isolate CUMCK2 by disk diffusion method in presence of beta-lactamase inhibitor clavulanic acid
# [22] = tested on: Escherichia coli; assay: Antimicrobial activity against CTX-M-14-like, TEM-1-like beta-lactamase producing Escherichia coli isolate CUMC204 by disk diffusion method
# [23] = tested on: Escherichia coli; assay: Antimicrobial activity against CMY-2 beta-lactamase producing Escherichia coli isolate CUMC190 by disk diffusion method in presence of beta-lactamase inhibitor clavulanic acid
# [24] = tested on: Escherichia coli; assay: Antimicrobial activity against CTX-M-14, TEM-1-like beta-lactamase producing Escherichia coli isolate CUMC241 by disk diffusion method
# [25] = tested on: Klebsiella pneumoniae; assay: Antimicrobial activity against SHV-12-like, SHV-1-like beta-lactamase producing Klebsiella pneumoniae isolate CUMCK9 by disk diffusion method in presence of beta-lactamase inhibitor clavulanic acid
# [26] = tested on: Escherichia coli; assay: Antimicrobial activity against CTX-M-14, TEM-1-like beta-lactamase producing Escherichia coli isolate CUMC248 by disk diffusion method
# [27] = tested on: Escherichia coli; assay: Antimicrobial activity against CTX-M-14-like, TEM-1-like beta-lactamase producing Escherichia coli isolate CUMC203 by disk diffusion method in presence of beta-lactamase inhibitor clavulanic acid
# [28] = tested on: Escherichia coli; assay: Antimicrobial activity against CMY-2 beta-lactamase producing Escherichia coli isolate CUMC225 by disk diffusion method in presence of beta-lactamase inhibitor clavulanic acid
# [29] = tested on: Escherichia coli; assay: Antimicrobial activity against CMY-2 beta-lactamase producing Escherichia coli isolate CUMC181 by disk diffusion method
# [30] = tested on: Escherichia coli; assay: Antimicrobial activity against CMY-2 beta-lactamase producing Escherichia coli isolate CUMC243 by disk diffusion method
# [31] = tested on: Escherichia coli; assay: Antimicrobial activity against CMY-2 beta-lactamase producing Escherichia coli isolate CUMC201 by disk diffusion method in presence of beta-lactamase inhibitor clavulanic acid
# [32] = tested on: Escherichia coli; assay: Antimicrobial activity against CTX-M-14-like, TEM-1-like beta-lactamase producing Escherichia coli isolate CUMC233 by disk diffusion method in presence of beta-lactamase inhibitor clavulanic acid
# [33] = tested on: Escherichia coli; assay: Antimicrobial activity against CMY-2 beta-lactamase producing Escherichia coli isolate CUMC223 by disk diffusion method
# [34] = tested on: Escherichia coli; assay: Antimicrobial activity against CTX-M-14, TEM-1-like beta-lactamase producing Escherichia coli isolate CUMC176 by disk diffusion method
# [35] = tested on: Escherichia coli; assay: Antimicrobial activity against CTX-M-14-like, TEM-1-like beta-lactamase producing Escherichia coli isolate CUMC233 by disk diffusion method
# [36] = tested on: Escherichia coli; assay: Antimicrobial activity against CTX-M-14, TEM-1-like beta-lactamase producing Escherichia coli isolate CUMC180 by disk diffusion method
# [37] = tested on: Klebsiella pneumoniae; assay: Antimicrobial activity against SHV-12-like, SHV-1-like beta-lactamase producing Klebsiella pneumoniae isolate CUMCK9 by disk diffusion method
# [38] = tested on: Escherichia coli; assay: Antimicrobial activity against CMY-2 beta-lactamase producing Escherichia coli isolate CUMC223 by disk diffusion method in presence of beta-lactamase inhibitor clavulanic acid
# [39] = tested on: Escherichia coli; assay: Antimicrobial activity against CMY-2,CTX-M-14,TEM-2-like beta-lactamase producing Escherichia coli isolate CUMC215 by disk diffusion method in presence of beta-lactamase inhibitor clavulanic acid
# [40] = tested on: Escherichia coli; assay: Antimicrobial activity against CMY-2,TEM-2-like beta-lactamase producing Escherichia coli isolate CUMC224 by disk diffusion method in presence of beta-lactamase inhibitor clavulanic acid
# [41] = tested on: Escherichia coli; assay: Antimicrobial activity against CTX-M-14, TEM-1-like beta-lactamase producing Escherichia coli isolate CUMC241 by disk diffusion method in presence of beta-lactamase inhibitor clavulanic acid
# [42] = tested on: Escherichia coli; assay: Antimicrobial activity against CMY-2 beta-lactamase producing Escherichia coli isolate CUMC201 by disk diffusion method
# [43] = tested on: Escherichia coli; assay: Antimicrobial activity against CTX-M-14, TEM-1-like beta-lactamase producing Escherichia coli isolate CUMC248 by disk diffusion method in presence of beta-lactamase inhibitor clavulanic acid
# [44] = tested on: Escherichia coli; assay: Antimicrobial activity against CMY-2 beta-lactamase producing Escherichia coli isolate CUMC214 by disk diffusion method
compound,measurement,setting,value
CO/N=C(\C(=O)N[C@@H]1C(=O)N2C(C(=O)O)=C(COC(C)=O)CS[C@H]12)c1csc(N)n1 [CEFOTAXIME],inhibition zone (IZ),[1],13 mm
same,inhibition zone (IZ),[2],12 mm
same,inhibition zone (IZ),[3],30 mm
same,inhibition zone (IZ),[4],15 mm
same,inhibition zone (IZ),[5],17 mm
same,inhibition zone (IZ),[6],7 mm
same,inhibition zone (IZ),[7],12 mm
same,inhibition zone (IZ),[8],30 mm
same,inhibition zone (IZ),[9],30 mm
same,inhibition zone (IZ),[10],30 mm
same,inhibition zone (IZ),[11],29 mm
same,inhibition zone (IZ),[12],11 mm
same,inhibition zone (IZ),[13],11 mm
same,inhibition zone (IZ),[14],16 mm
same,inhibition zone (IZ),[15],30 mm
same,inhibition zone (IZ),[16],6 mm
same,inhibition zone (IZ),[17],15 mm
same,inhibition zone (IZ),[18],31 mm
same,inhibition zone (IZ),[19],14 mm
same,inhibition zone (IZ),[20],6 mm
same,inhibition zone (IZ),[21],16 mm
same,inhibition zone (IZ),[22],15 mm
same,inhibition zone (IZ),[23],11 mm
same,inhibition zone (IZ),[24],13 mm
same,inhibition zone (IZ),[25],32 mm
same,inhibition zone (IZ),[26],12 mm
same,inhibition zone (IZ),[27],32 mm
same,inhibition zone (IZ),[28],11 mm
same,inhibition zone (IZ),[29],13 mm
same,inhibition zone (IZ),[30],11 mm
same,inhibition zone (IZ),[31],10 mm
same,inhibition zone (IZ),[32],32 mm
same,inhibition zone (IZ),[33],13 mm
same,inhibition zone (IZ),[34],17 mm
same,inhibition zone (IZ),[35],18 mm
same,inhibition zone (IZ),[36],17 mm
same,inhibition zone (IZ),[37],18 mm
same,inhibition zone (IZ),[38],13 mm
same,inhibition zone (IZ),[39],8 mm
same,inhibition zone (IZ),[40],12 mm
same,inhibition zone (IZ),[41],30 mm
same,inhibition zone (IZ),[42],12 mm
same,inhibition zone (IZ),[43],28 mm
same,inhibition zone (IZ),[44],13 mm
CC(C)(O/N=C(\C(=O)N[C@@H]1C(=O)N2C(C(=O)[O-])=C(C[n+]3ccccc3)CS[C@H]12)c1csc(N)n1)C(=O)O [CEFTAZIDIME],inhibition zone (IZ),[1],14 mm
same,inhibition zone (IZ),[2],13 mm
same,inhibition zone (IZ),[3],30 mm
same,inhibition zone (IZ),[4],28 mm
same,inhibition zone (IZ),[5],28 mm
same,inhibition zone (IZ),[6],6 mm
same,inhibition zone (IZ),[7],12 mm
same,inhibition zone (IZ),[8],30 mm
same,inhibition zone (IZ),[9],29 mm
same,inhibition zone (IZ),[10],30 mm
same,inhibition zone (IZ),[11],29 mm
same,inhibition zone (IZ),[12],8 mm
same,inhibition zone (IZ),[13],6 mm
same,inhibition zone (IZ),[14],27 mm
same,inhibition zone (IZ),[15],31 mm
same,inhibition zone (IZ),[16],16 mm
same,inhibition zone (IZ),[17],7 mm
same,inhibition zone (IZ),[18],33 mm
same,inhibition zone (IZ),[19],26 mm
same,inhibition zone (IZ),[20],8 mm
same,inhibition zone (IZ),[21],12 mm
same,inhibition zone (IZ),[22],27 mm
same,inhibition zone (IZ),[23],13 mm
same,inhibition zone (IZ),[24],28 mm
same,inhibition zone (IZ),[25],26 mm
same,inhibition zone (IZ),[26],25 mm
same,inhibition zone (IZ),[27],29 mm
same,inhibition zone (IZ),[28],11 mm
same,inhibition zone (IZ),[29],6 mm
same,inhibition zone (IZ),[30],7 mm
same,inhibition zone (IZ),[31],12 mm
same,inhibition zone (IZ),[32],32 mm
same,inhibition zone (IZ),[33],6 mm
same,inhibition zone (IZ),[34],30 mm
same,inhibition zone (IZ),[35],31 mm
same,inhibition zone (IZ),[36],29 mm
same,inhibition zone (IZ),[37],6 mm
same,inhibition zone (IZ),[38],13 mm
same,inhibition zone (IZ),[39],7 mm
same,inhibition zone (IZ),[40],13 mm
same,inhibition zone (IZ),[41],32 mm
same,inhibition zone (IZ),[42],8 mm
same,inhibition zone (IZ),[43],29 mm
same,inhibition zone (IZ),[44],8 mm
